Test results taken from US20040097522A1, “Triazolopyrimidines” (priority 2000, published 2004).

Assay: logP determination
Type: physicochemical
Details: for logP: Table 1 logP

SMILES | logP | log P (S) (log P (S), stated in the preparation example)
C=C(Cl)CN(CCCF)c1c(-c2cccc3c2OC(F)(F)O3)c(Cl)nc2ncnn12 [Example 55] | 3.61 | –
COC(=O)CN(CCCF)c1c(-c2cc(C(F)(F)F)ccc2Cl)c(Cl)nc2ncnn12 [Example 10] | 3.23 | –
COC(CN(CCCF)c1c(-c2ccc(C(F)(F)F)c(F)c2F)c(Cl)nc2ncnn12)OC [Example 24] | 3.55 | –
CN(C)C(=O)CN(CCCF)c1c(-c2ccc(C(F)(F)F)c(F)c2F)c(Cl)nc2ncnn12 [Example 9] | 2.86 | –
C=C(Br)CN(CCCF)c1c(-c2cccc(C(F)(F)F)c2Cl)c(F)nc2ncnn12 [Example 46] | 3.73 | –
COC(CN(CCCF)c1c(-c2cc(C(F)(F)F)ccc2Cl)c(Cl)nc2ncnn12)OC [Example 17] | 3.54 | –
COC(CN(CCCF)c1c(-c2c(F)cc(F)cc2C(F)(F)F)c(Cl)nc2ncnn12)OC [Example 73] | 3.22 | –
C=C(Br)CN(CCCF)c1c(-c2ccc(C(F)(F)F)c(F)c2F)c(Cl)nc2ncnn12 [Example 48] | 3.94 | –
COC(=O)CN(CCCF)c1c(-c2c(F)cc(F)cc2C(F)(F)F)c(Cl)nc2ncnn12 [Example 74] | 2.92 | –
CCOC(CN(CCCF)c1c(-c2cc(SC(F)(F)F)ccc2Cl)c(Cl)nc2ncnn12)OCC [Example 29] | 4.47 | –
C=C(Cl)CN(CCCF)c1c(-c2cc(SC(F)(F)F)ccc2Cl)c(Cl)nc2ncnn12 [Example 53] | 4.27 | –
COC(CN(CCCF)c1c(-c2c(Cl)c(F)cc(C(F)(F)F)c2Cl)c(Cl)nc2ncnn12)OC [Example 19] | 3.82 | –
C=C(Br)CN(CCCF)c1c(-c2c(Cl)c(F)cc(C(F)(F)F)c2Cl)c(Cl)nc2ncnn12 [Example 43] | 4.27 | –
CN(C)C(=O)CN(CCCF)c1c(-c2cc(SC(F)(F)F)ccc2Cl)c(Cl)nc2ncnn12 [Example 6] | 3.14 | –
CN(C)C(=O)CN(CCCF)c1c(-c2cccc3c2OC(F)(F)O3)c(Cl)nc2ncnn12 [Example 8] | 2.52 | –
COC(CN(CCCF)c1c(-c2cccc(C(F)(F)F)c2Cl)c(Cl)nc2ncnn12)OC [Example 22] | 3.42 | –
CC(=O)CN(CCCF)c1c(-c2cc(C(F)(F)F)ccc2Cl)c(Cl)nc2ncnn12 [Example 33] | 3.07 | –
CC(=O)CN(CCCF)c1c(-c2ccc(C(F)(F)F)c(F)c2F)c(Cl)nc2ncnn12 [Example 40] | 3.14 | –
C=C(Br)CN(CCCF)c1c(-c2ccc(C(F)(F)F)cc2F)c(Cl)nc2ncnn12 [Example 44] | 3.85 | –
C=C(Cl)CN(CCCF)c1c(-c2c(Cl)c(F)cc(C(F)(F)F)c2Cl)c(Cl)nc2ncnn12 [Example 51] | 4.19 | –
C=C(Br)CN(CCCF)c1c(-c2cccc3c2OC(F)(F)O3)c(Cl)nc2ncnn12 [Example 47] | 3.69 | –
CC(=O)CN(CCCF)c1c(-c2cc(SC(F)(F)F)ccc2Cl)c(Cl)nc2ncnn12 [Example 37] | 3.42 | –
CCOC(CN(CCCF)c1c(-c2cccc(C(F)(F)F)c2Cl)c(Cl)nc2ncnn12)OCC [Example 30] | 4.00 | –
COC(=O)CN(CCCF)c1c(-c2ccc(C(F)(F)F)c(F)c2F)c(Cl)nc2ncnn12 [Example 16] | 3.29 | –
C=C(Cl)CN(CCCF)c1c(-c2cc(C(F)(F)F)ccc2Cl)c(Cl)nc2ncnn12 [Example 49] | 3.84 | –
CN(C)C(=O)CN(CCCF)c1c(-c2c(Cl)c(F)cc(C(F)(F)F)c2Cl)c(Cl)nc2ncnn12 [Example 4] | 3.01 | –
C=C(Cl)CN(CCCF)c1c(-c2ccc(C(F)(F)F)cc2F)c(Cl)nc2ncnn12 [Example 52] | 3.77 | –

SMILES | logP | log P (S) (log P (S), stated in the preparation example)
CC(=O)CN(CCCF)c1c(-c2cccc(C(F)(F)F)c2Cl)c(Cl)nc2ncnn12 [Example 38] | 3.01 | –
CN(C)C(=O)CN(CCCF)c1c(-c2cc(C(F)(F)F)ccc2C(F)(F)F)c(Cl)nc2ncnn12 [Example 3] | 2.89 | –
CCOC(CN(CCCF)c1c(-c2ccc(C(F)(F)F)c(F)c2F)c(Cl)nc2ncnn12)OCC [Example 32] | 4.16 | –
CN(C)C(=O)CN(CCCF)c1c(-c2ccc(C(F)(F)F)cc2F)c(Cl)nc2ncnn12 [Example 5] | 2.71 | –
CCOC(CN(CCCF)c1c(-c2cccc3c2OC(F)(F)O3)c(Cl)nc2ncnn12)OCC [Example 31] | 3.81 | –
C=C(Cl)CN(CCCF)c1c(-c2cccc(C(F)(F)F)c2Cl)c(F)nc2ncnn12 [Example 54] | 3.66 | –
COC(CN(CCCF)c1c(-c2cc(SC(F)(F)F)ccc2Cl)c(Cl)nc2ncnn12)OC [Example 21] | 3.90 | –
COC(=O)CN(CCCF)c1c(-c2cccc(C(F)(F)F)c2Cl)c(Cl)nc2ncnn12 [Example 15] | 3.17 | –
C=C(Cl)CN(CCCF)c1c(-c2cc(C(F)(F)F)ccc2C(F)(F)F)c(F)nc2ncnn12 [Example 50] | 3.77 | –
COC(=O)CN(CCCF)c1c(-c2cc(SC(F)(F)F)ccc2Cl)c(Cl)nc2ncnn12 [Example 14] | 3.57 | –
COC(CN(CCCF)c1c(-c2cccc3c2OC(F)(F)O3)c(Cl)nc2ncnn12)OC [Example 23] | 3.24 | –
CC(=O)CN(CCCF)c1c(-c2cccc3c2OC(F)(F)O3)c(Cl)nc2ncnn12 [Example 39] | 2.80 | –
CN(C)C(=O)CN(CCCF)c1c(-c2cccc(C(F)(F)F)c2Cl)c(Cl)nc2ncnn12 [Example 7] | 2.71 | –
CN(C)C(=O)CN(CCCF)c1c(-c2cc(C(F)(F)F)ccc2Cl)c(Cl)nc2ncnn12 [Example 2] | 2.77 | –
C=C(Cl)CN(CCCF)c1c(-c2ccc(C(F)(F)F)c(F)c2F)c(Cl)nc2ncnn12 [Example 56] | 3.86 | –
CCOC(CN(CCCF)c1c(-c2c(Cl)c(F)cc(C(F)(F)F)c2Cl)c(Cl)nc2ncnn12)OCC [Example 27] | 4.45 | –
COC(=O)CN(CCCF)c1c(-c2cccc3c2OC(F)(F)O3)c(Cl)nc2ncnn12 [Example 1] | – | 2.93
C=C(Br)CN(CCCF)c1c(-c2cc(C(F)(F)F)ccc2C(F)(F)F)c(F)nc2ncnn12 [Example 42] | 3.84 | –
CCOC(CN(CCCF)c1c(-c2cc(C(F)(F)F)ccc2Cl)c(Cl)nc2ncnn12)OCC [Example 25] | 4.10 | –
COC(=O)CN(CCCF)c1c(-c2c(Cl)c(F)cc(C(F)(F)F)c2Cl)c(Cl)nc2ncnn12 [Example 12] | 3.58 | –
COC(=O)CN(CCCF)c1c(-c2ccc(C(F)(F)F)cc2F)c(Cl)nc2ncnn12 [Example 13] | 3.17 | –
CC(=O)CN(CCCF)c1c(-c2ccc(C(F)(F)F)cc2F)c(Cl)nc2ncnn12 [Example 36] | 3.01 | –
COC(CN(CCCF)c1c(-c2ccc(C(F)(F)F)cc2F)c(Cl)nc2ncnn12)OC [Example 20] | 3.41 | –
C=C(Br)CN(CCCF)c1c(-c2cc(SC(F)(F)F)ccc2Cl)c(Cl)nc2ncnn12 [Example 45] | 4.36 | –
CCOC(CN(CCCF)c1c(-c2ccc(C(F)(F)F)cc2F)c(Cl)nc2ncnn12)OCC [Example 28] | 4.04 | –
C=C(Br)CN(CCCF)c1c(-c2cc(C(F)(F)F)ccc2Cl)c(Cl)nc2ncnn12 [Example 41] | 3.92 | –
